Legend:
[1] = tested on: T1, MpAC1-233; test: cAMP formation determined by HPLC; type: biochemical, Mycolicibacterium phlei; conditions: 5 mM Mn2+, no Cu2+, pH 8.0, 30 °C; Hill coefficient 0.9 ± 0.1; read-out: SC50 [mM ATP]
T1 construct: gene MpAC; full length, residues 1-233 (CHD plus C-terminal YHS domain); His-TEV tag removed, N-terminal GS dipeptide remains; codon-optimized gene in E. coli BL21(DE3)[pRep4]
From the text: cAMP formation determined by HPLC on MpAC1-233

[2] = tested on: T2, MpAC1-182; test: cAMP formation determined by HPLC; type: biochemical, Mycolicibacterium phlei; conditions: 5 mM Mn2+, no Cu2+, pH 8.0, 30 °C; Hill coefficient 1.5 ± 0.2; read-out: SC50 [mM ATP]
T2 construct: gene MpAC; isolated catalytic domain (CHD), residues 1-182 of 233, YHS domain removed; N-terminal MRGSH6GS tag kept, C-terminal extra Ala; codon-optimized gene in E. coli BL21(DE3)[pRep4]; class III ACs act as head-to-tail dimers
From the text: cAMP formation determined by HPLC on MpAC1-182

[3] = target: full-length Mycobacterium phlei adenylyl cyclase, untagged MpAC_(1-233) (Mycobacterium phlei); test: protein dependence of adenylyl cyclase activity; dimer to monomers; dissociation constant calculated from the protein dependance of the AC activity; data not shown

## Nc1ncnc2c1ncn2[C@@H]1O[C@H](COP(=O)(O)OP(=O)(O)OP(=O)(O)O)[C@@H](O)[C@H]1O [ATP]
[1]
  Km: 2.11 ± 0.54 mM
[2]
  Km: 0.9 ± 0.22 mM

## full-length Mycobacterium phlei adenylyl cyclase, untagged MpAC_(1-233) (enzyme)
[3]
  Kd: 160 nM

Source: PMC4626032, “The YHS-Domain of an Adenylyl Cyclase from Mycobacterium phlei Is a Probable Copper-Sensor Module” (PLoS ONE, 2015)
